Measured values from PubChem BioAssay AID463199 (Broad Institute, 2010).
Activity calls are given as the source filed them.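 How the source made its calls: active means AC50, the dose giving half-maximal effect, exceeds a fixed cutoff for a compound that rescues yeast growth under heat; inactive means the rest, inconclusive results apart.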

System: S. cerevisiae Burl-1 ts mutant growth, BacTiter-Glo, 38.5C 24 h
Assay: restored growth of temperature-sensitive Burl-1 yeast – whole organism, S. cerevisiae, Burl-1 ts mutant, luminescence, counter-screen for SUMOylation pathway inhibitor project, dose response (AID 463199)

CCN1C(=NCc2cccc(Cl)c2)N[C@@H](c2cccc(F)c2)C(C(=O)OC)=C1C
AC50: > 42 µM (inactive)

Cc1cc2ncc(C(=O)N=CN(C)C)cn2n1
AC50: > 42 µM (inactive)

Cc1csc(=O)n1CC(=O)OCC(=O)Nc1cc([N+](=O)[O-])ccc1Cl
AC50: > 42 µM (inactive)

OCC[C@@H]1C[C@H](O)[C@@H](O)[C@]2(CCc3ccccc3CO2)O1
AC50: > 42 µM (inactive)

CCc1ccccc1NC1c2ccccc2C(=O)N1c1cccnc1 (configuration not stated)
AC50: > 42 µM (inactive)

CCN(CC)c1ccc(N=Cc2c(O)n(Cc3ccccc3)c(=O)[nH]c2=O)cc1
AC50: > 42 µM (inactive)

CCC1(CC)NC(=O)N(CC(=O)OCC(=O)NC(=O)c2ccccc2)C1=O
AC50: > 42 µM (inactive)

CCN(CC)S(=O)(=O)c1ccc(S(=O)(=O)N2CCC(C(=O)NC3CCN(Cc4ccccc4)CC3)CC2)cc1
AC50: > 42 µM (inactive)

CN(C)S(=O)(=O)c1cc(NC(=O)CSc2nn(-c3ccc(Cl)cc3)c(=S)s2)ccc1Cl
AC50: > 42 µM (inactive)

Cc1ccc(CNC(=O)CCn2cc(-c3ccc(C)cc3)nc2CCN)cc1
AC50: > 42 µM (inactive)

CCC(C)(C(=O)NC1CCCC1)N(C(=O)c1ccccn1)c1ccc(C)cc1 (configuration not stated)
AC50: > 42 µM (inactive)

Cc1nc2ccc(NC(=O)c3ccco3)cc2s1
AC50: > 42 µM (inactive)

O=C(CSc1nnc(-c2ccc(Br)cc2)o1)Nc1cccc2ccccc12
AC50: > 42 µM (inactive)

COc1ccc(N(CC(=O)NCc2ccc(C)cc2)S(=O)(=O)c2c(C)nn(C)c2C)cc1
AC50: > 42 µM (inactive)

N#CC(CC(=O)c1ccc(F)cc1)c1ccc2c(c1)OCO2 (configuration not stated)
AC50: > 42 µM (inactive)

Cc1ccc(NC(=O)Cn2nnc(C(=O)NCc3ccc4c(c3)OCO4)c2N)cc1
AC50: > 42 µM (inactive)

COc1ccc(/C=C/C(=O)NC(=S)Nc2ccccn2)cc1
AC50: > 42 µM (inactive)

Oc1ccccc1-c1cc(C(F)(F)C(F)F)[nH]n1
AC50: > 42 µM (inactive)

NC(=O)C1CCCN(C(=S)Nc2cccc3ccccc23)C1 (configuration not stated)
AC50: > 42 µM (inactive)

CN(C)c1ccc(CN(Cc2ccco2)C(=O)c2ccco2)cc1
AC50: > 42 µM (inactive)

CCc1ccc(S(=O)(=O)NCc2cccnc2)cc1
AC50: > 42 µM (inactive)

CCN(C(=O)Cn1nc(C)c([N+](=O)[O-])c1C)c1c(N)n(Cc2ccccc2)c(=O)[nH]c1=O
AC50: > 42 µM (inactive)

Oc1c(Cl)cc(Cl)cc1/C=N/c1nc(-c2ccc(Cl)cc2)cs1
AC50: > 42 µM (inactive)

COCCN1C=C(C(=O)OC)C(c2cc3c(cc2Br)OCO3)C(C(=O)OC)=C1
AC50: > 42 µM (inactive)

CNC(=O)NNC(=O)c1csc(-c2ccc(C(F)(F)F)cc2Cl)n1
AC50: > 42 µM (inactive)

CC(C)(C)NC(=O)NC(=O)CN1CCN(S(=O)(=O)c2ccc3c(c2)OCCO3)CC1
AC50: > 21 µM (inactive)

COc1ccccc1CCNC(=O)/C(=C/c1cccnc1)NC(=O)c1ccccc1
AC50: > 42 µM (inactive)

c1ccc(-c2cc3ccccc3cn2)cc1
AC50: > 42 µM (inactive)

O=C(COC(=O)CSc1ccc([N+](=O)[O-])cc1)NC1CCCCCCC1
AC50: > 42 µM (inactive)

Cc1c(Cl)cccc1NC(=S)NCCCN(C)C
AC50: > 42 µM (inactive)

NC(=O)c1ccccc1NC(=O)c1ccc2c(c1)OCO2
AC50: > 42 µM (inactive)

CN(C(=S)NC1=CCS(=O)(=O)C1)C1CCCCC1
AC50: > 42 µM (inactive)

COCCn1c(=NC(=O)c2ccc(S(=O)(=O)N3CCOCC3)cc2)sc2cc(S(N)(=O)=O)ccc21
AC50: > 42 µM (inactive)

COc1cc(CN2CCCC(CO)(Cc3cccc(Cl)c3)C2)cc2c1OCO2 (configuration not stated)
AC50: > 42 µM (inactive)

Cc1ccc(S(=O)(=O)N(C)CC(=O)O/N=C(\N)c2ccccn2)cc1
AC50: 40.6 µM

Cc1ccccc1NC(=O)COC(=O)C1C2CC3OC(=O)C1C3C2 (configuration not stated)
AC50: > 42 µM (inactive)

CCCNCc1cc(OCC)c(OCC(N)=O)cc1Br
AC50: > 42 µM (inactive)

COc1ccc(/C=N\NC(=O)c2cc(OCC(F)(F)F)ccc2OCC(F)(F)F)cc1
AC50: > 42 µM (inactive)

Cc1ccc(S(=O)(=O)N2c3ccc(S(N)(=O)=O)cc3CC2C)cc1 (configuration not stated)
AC50: > 42 µM (inactive)

CN1C(=O)c2ccc(NC(=S)NC(=O)C(C)(C)C)cc2C1=O
AC50: > 42 µM (inactive)

Cc1ccc(Sc2cnccc2C#N)cc1
AC50: > 42 µM (inactive)

CC[n+]1c(/C=C/N(C)c2ccccc2)n(-c2ccccc2)c2ccc(-c3nc4ccccc4s3)cc21
AC50: > 42 µM (inactive)

Cc1cc(Br)ccc1NC(=O)c1cnc(N2CCN(c3ccccn3)CC2)c2ccccc12
AC50: > 42 µM (inactive)

Cc1nc(NCCN2CCOCC2)c2nnn(Cc3c(F)cccc3Cl)c2n1
AC50: > 42 µM (inactive)

COc1ccc(NC2CCCN(C(=O)c3csc(C)n3)C2)cc1 (configuration not stated)
AC50: > 42 µM (inactive)

Cc1cccc(OCC(O)CN2C(C)(C)CC(O)CC2(C)C)c1 (configuration not stated)
AC50: > 42 µM (inactive)

COc1ccc(S(=O)(=O)N2CCCOC2CNC(=O)C(=O)NCCCN2CCOCC2)cc1C (configuration not stated)
AC50: > 42 µM (inactive)

C=CCn1c(CCC)nc2ccccc21
AC50: > 42 µM (inactive)

Cc1nnc(C)n1/N=C/c1cc2ccccc2nc1Cl
AC50: > 42 µM (inactive)

CCOC(=O)c1sc2ncnc(N3CCN(c4ccc(OC)cc4)CC3)c2c1C
AC50: > 42 µM (inactive)

CCOC(=O)c1cccc(NC(=O)C2CCCN(S(=O)(=O)c3c(C)n[nH]c3C)C2)c1 (configuration not stated)
AC50: > 42 µM (inactive)

CCn1c(SCC(=O)Nc2ccc(OCc3ccccc3)cc2)nnc1-c1ccco1
AC50: > 42 µM (inactive)

COc1ccc(C(=O)NC(=S)Nc2ccc(CN3CCCCC3)cc2)cc1Cl
AC50: > 42 µM (inactive)

CCOC(=O)N1CCN(c2nnnn2-c2ccccc2)CC1
AC50: > 42 µM (inactive)

C=CCNC(=O)c1cc(-c2cccnc2)nc2ccccc12
AC50: > 42 µM (inactive)

CCCSc1nc(=O)n2cccc(C)c2n1
AC50: > 42 µM (inactive)

Cc1ccc(NC(=O)C(=O)NCC2CCCN2S(=O)(=O)c2cccs2)cc1 (configuration not stated)
AC50: > 42 µM (inactive)

CSc1ccccc1-n1nnnc1SCC(=O)Nc1ccccc1C
AC50: > 42 µM (inactive)

O=C(OCCCN=C1NS(=O)(=O)c2ccccc21)c1cccs1
AC50: > 42 µM (inactive)

CCc1ccc(-n2c(Cc3ccccc3)n[nH]c2=S)cc1
AC50: > 42 µM (inactive)

CC(C)Cc1nc(N2CCOCC2)c(C#N)c2c1CCC2
AC50: > 42 µM (inactive)

CO/N=C/c1ccc(Oc2ccc(C)cc2)nc1
AC50: > 42 µM (inactive)

COC(=O)N/N=C/c1ccc(-c2ccc(Cl)cc2Cl)o1
AC50: > 42 µM (inactive)

CS(=O)(=O)N(CC(=O)Nc1ccccc1C(=O)N1CCCC1)c1ccc2c(c1)OCO2
AC50: > 42 µM (inactive)

CCOC(=O)c1ccc(NC(=S)NCCCN2CCOCC2)cc1
AC50: > 42 µM (inactive)

CN(CC(=O)Nc1sccc1C#N)Cc1ccccc1
AC50: > 42 µM (inactive)

CCN(CC)C(=O)Cn1cc(S(=O)(=O)CC(=O)NCCc2ccc(OC)c(OC)c2)c2ccccc21
AC50: > 42 µM (inactive)

COc1ccc(S(=O)(=O)NCC(=O)N(CC(=O)NCC2CCCO2)c2ccccc2C)cc1 (configuration not stated)
AC50: > 42 µM (inactive)

CC(=Nc1ccccc1)C1=C(O)CC(C)(C)CC1=O
AC50: > 42 µM (inactive)

C[C@H]1O[C@H]1P(=O)(O)O
AC50: > 42 µM (inactive)

COC(=O)C1(Cc2ccc(O)cc2)OC(=O)C(O)=C1c1ccc(O)cc1 (configuration not stated)
AC50: > 42 µM (inactive)

COc1ccc(NC(=S)NC(=O)C2CCC2)cc1
AC50: > 42 µM (inactive)

C/C=C(/C)C(=O)OC1c2c(ccc3ccc(=O)oc23)OC(C)(C)C1OC(=O)/C(C)=C\C (configuration not stated)
AC50: > 42 µM (inactive)

CCCCNC(=O)c1ccccc1NC(=O)C1=C(C)OCCS1
AC50: 11.3 µM

COc1ccc(S(=O)(=O)NCC(=O)N(CC(=O)NCc2ccco2)Cc2ccccc2)cc1
AC50: > 42 µM (inactive)

CCN(CC)/C(=N\S(=O)(=O)c1ccc(F)cc1)c1ccccc1
AC50: > 21 µM (inactive)

N#Cc1ccc(/C=C/C(=O)c2ccco2)cc1
AC50: > 42 µM (inactive)

Cc1cc(C)cc(C(=O)NC(CC(N)=O)c2ccc(N3CCC(N4CCCCC4)CC3)c([N+](=O)[O-])c2)c1 (configuration not stated)
AC50: > 42 µM (inactive)

O=C(NC1CCc2ccccc21)c1cc(COc2ccc(F)cc2F)on1 (configuration not stated)
AC50: > 42 µM (inactive)

CCCCN(C(=O)C1=COCCO1)c1c(N)n(Cc2ccccc2)c(=O)[nH]c1=O
AC50: > 42 µM (inactive)

CCC(C)[C@H](N)c1nnc(SCC(=O)Nc2cccc(Cl)c2)o1 (some centres not stated)
AC50: > 42 µM (inactive)

CCc1ccc2nc(-c3cccc(C)c3)nc(SCC(=O)NCC3CCCO3)c2c1 (configuration not stated)
AC50: > 42 µM (inactive)

CCOc1ccc(N(CC)S(=O)(=O)c2cccc3nsnc23)cc1
AC50: > 42 µM (inactive)

COc1cc([N+](=O)[O-])cc(/C=N/NC(=O)c2cc(C)nc3ccccc23)c1O
AC50: > 42 µM (inactive)

Cn1c(-c2sc3cc(C(F)(F)F)cnc3c2-c2cccs2)n[nH]c1=S
AC50: > 42 µM (inactive)

COc1ccc(/C=N\Nc2ccc([N+](=O)[O-])cc2)c(C(=O)O)c1OC
AC50: > 42 µM (inactive)

CCn1nccc1C(=O)Nc1nccs1
AC50: > 42 µM (inactive)

Cc1ccc(-c2[nH]ncc2CNCCc2cnn(-c3ccccc3)c2)cc1C
AC50: > 42 µM (inactive)

COc1ccc(NC(=O)c2ccc(-c3csc(C)n3)cc2)cc1
AC50: > 42 µM (inactive)

COCCN(C(=O)c1csnn1)C(C(=O)NC1CCCCC1)c1ccccc1 (configuration not stated)
AC50: > 42 µM (inactive)

CC1CN(S(=O)(=O)c2cccc(C(=O)N=c3sccn3C)c2)CC(C)O1 (configuration not stated)
AC50: > 42 µM (inactive)

COc1ccc(CNS(=O)(=O)c2ccc3c(c2)CCN3C(=O)C2CCC2)cc1
AC50: > 42 µM (inactive)

Cc1cccc(NC(=O)CCc2ccccc2)c1
AC50: > 42 µM (inactive)

C=C1C(O)[C@@H]2O[C@]3(CC[C@H](/C=C/C(C)[C@@H]4CC(C)=CC5(O[C@H](C[C@@](C)(O)C(=O)O)CCC5O)O4)O3)CC[C@H]2O[C@@H]1C(O)CC(C)[C@H]1OC2(CCCCO2)CCC1C (some centres not stated)
AC50: 4.06 µM

CCN(CC)S(=O)(=O)c1ccc(NC(=O)C(C)N(c2ccccc2)S(C)(=O)=O)cc1 (configuration not stated)
AC50: > 42 µM (inactive)

Cc1nc(-c2cccc(S(=O)(=O)N3CCOCC3)c2)cs1
AC50: > 42 µM (inactive)

Cc1cc(C)c(S(=O)(=O)c2cccc(C)c2C)c(=O)[nH]1
AC50: > 42 µM (inactive)
